≈ marks a conversion by molar mass, not a printed value. Where two headings read alike, the source gives them in different places.
Tests used:
[1] = target: T1, glucocerebrosidase (Gcase) (Homo sapiens, UniProt P04062); experiment: Glucocerebrosidase (Gcase) activation assay, 4-methylumbelliferyl-beta-D-glucopyranoside substrate, with saposin C; format: biochemical
T1 sequence (P04062 40-536): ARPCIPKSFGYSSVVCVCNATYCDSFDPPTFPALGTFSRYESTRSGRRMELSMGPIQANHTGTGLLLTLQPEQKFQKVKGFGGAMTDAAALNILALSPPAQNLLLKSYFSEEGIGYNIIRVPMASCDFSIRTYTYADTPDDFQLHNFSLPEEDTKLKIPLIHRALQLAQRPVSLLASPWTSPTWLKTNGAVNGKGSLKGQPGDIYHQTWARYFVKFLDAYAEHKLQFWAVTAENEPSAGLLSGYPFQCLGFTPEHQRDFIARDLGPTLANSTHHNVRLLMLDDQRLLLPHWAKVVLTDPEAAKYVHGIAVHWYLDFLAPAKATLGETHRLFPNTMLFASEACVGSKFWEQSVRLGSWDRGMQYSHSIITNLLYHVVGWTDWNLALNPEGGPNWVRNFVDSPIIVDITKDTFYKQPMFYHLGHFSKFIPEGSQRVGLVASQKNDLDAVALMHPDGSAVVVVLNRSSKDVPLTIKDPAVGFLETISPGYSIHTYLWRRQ
Experimental: The ability of exemplary compounds to activate glucocerebrosidase (Gcase) was measured.
A 484 μL aliquot of a 1.0 mg/mL solution of phosphatidylserine (PS) (Sigma P7769) in chloroform was evaporated under a stream of nitrogen for 1 hour. The lipid film was dissolved over 4 minutes of vigorous vortexing in 40 mL of 176 mM K2HPO4/50 mM citric acid (pH 4.7) containing 7.5 μL of triton X-100, resulting in a mixed micellar preparation with a composition of 0.32 mM triton and 0.37 mol % PS. 4-Methylumbelliferyl-beta-D-glucopyranoside (ACROS-337025000) was dissolved in the micellar solution to a final concentration of 2 mM for use as the reaction substrate.
Test compounds were diluted to the desired concentrations with dimethylsulfoxide (DMSO) from 10 mM stocks, and 0.41 μL of the DMSO compound mixture was added to 100 μL of micellar solution containing 10 nM GCase and 100 nM saposin C (Enzo ALX-201-262-C050). Pre-incubation was allowed to occur for 30 minutes at room temperature, after which the reaction was initiated by combining 25 μL of substrate solution with 25 μL of compound/GCase/saposin mixture. The reaction proceeded for 15 minutes at room temperature and was stopped by adding 150 μL of 1M glycine, pH 12.5. The endpoint of the reaction was monitored by measuring fluorescence intensity (excitation: 365 nm; emission: 440 nm) on a SpectraMax i3 instrument (Molecular Devices). Test compounds were screened at 1.0 and 0.1 μM final concentration, and subsequent 8-point dose response curves were obtained using 3-fold dilutions from a maximum final concentration of […].

[2] = Compound solubility in water; format: physicochemical
[3] = test compound at 0.1 μM, read-out: Percent Gcase Activation, 0.1 μM Test Compound
[4] = test compound at 1.0 μM, read-out: Percent Gcase Activation, 1 μM Test Compound
[5] = 0.1 μM test compound, read-out: Percent Gcase Activation 0.1 μM Test Compound
[6] = 1 μM test compound, read-out: Percent Gcase Activation 1 μM Test Compound

| Structure (SMILES) | activation at 0.1 µM [1, 3] | activation at 1 µM [1, 4] | solubility ([2]; in water) | activation at 0.1 µM [1, 5] | activation at 1 µM [1, 6] | solubility [2] |
| --- | --- | --- | --- | --- | --- | --- |
| Cc1cc(-c2ccc3c(c2)OCO3)nc2c(C(=O)N[C@H](C)C3CC3)ncn12 [IV-29] | > 20% | > 60% | 1.1 µg/mL (≈ 3.02 µM) | – | – | – |
| Cc1cc(-c2cccc(OC3CC3)c2)nc2c(C(=O)NC(C)C(F)(F)F)ncn12 (centres unmarked) [III-169] | – | – | – | > 20% | > 60% | 0.7 µg/mL (≈ 1.73 µM) |
| Cc1cc(-c2cn(C)nn2)nc2c(C(=O)NC(C)(C)C3CC3)ncn12 [III-82] | – | – | – | < 10% | < 30% | 22.8 µg/mL (≈ 67.2 µM) |
| COc1c(C#N)cccc1-c1cc(C)n2cnc(C(=O)NC(C3CC3)C(F)(F)F)c2n1 (centres unmarked) [IV-67] | < 10% | 30 to 60% | 13.5 µg/mL (≈ 31.4 µM) | – | – | – |
| Cc1cc(OC(C)C)nc2c(C(=O)NC(C3CC3)C(F)(F)F)ncn12 (centres unmarked) [III-177] | – | – | – | 10 to 20% | 30 to 60% | 25.4 µg/mL (≈ 71.3 µM) |
| COc1cccc(-c2cc(C)n3cnc(C(=O)NC(C)(C)C4CC4)c3n2)n1 [III-146] | – | – | – | > 20% | > 60% | 0.9 µg/mL (≈ 2.46 µM) |
| C#CC(C)(C)NC(=O)c1ncn2c(C)cc(-c3cccc4nccn34)nc12 [IV-24] | < 10% | < 30% | 2.5 µg/mL (≈ 6.98 µM) | – | – | – |
| COc1cccc(-c2cc(C)n3cnc(C(=O)N[C@@H](C)C4CC4)c3n2)n1 [III-98] | – | – | – | 10 to 20% | > 60% | 5.2 µg/mL (≈ 14.8 µM) |
| Cc1cc(C)n2cnc(C(=O)NC(CC(C)C)C3CC3)c2n1 (centres unmarked) [III-11] | – | – | – | 10 to 20% | > 60% | 32.6 µg/mL (≈ 109 µM) |
| Cc1cc(-c2ccc3ocnc3c2)nc2c(C(=O)NC(C3CC3)C(F)(F)F)ncn12 (centres unmarked) [IV-72] | > 20% | > 60% | 1.1 µg/mL (≈ 2.65 µM) | – | – | – |
| Cc1c(-c2ccc(F)cc2)cnc2c(C(=O)N[C@@H](C)C3CC3)ncn12 [III-38] | – | – | – | < 10% | < 30% | – |
| Cc1cc(-c2ccc(F)cc2)nc2c(C(=O)NC(C3CC3)C(F)(F)F)ncn12 (centres unmarked) [IV-44] | > 20% | > 60% | 0.8 µg/mL (≈ 2.04 µM) | – | – | – |
| Cc1cc(-c2cccc3ncoc23)nc2c(C(=O)N[C@H](C3CC3)C(F)(F)F)ncn12 [IV-17] | > 20% | > 60% | 1.1 µg/mL (≈ 2.65 µM) | – | – | – |
| Cc1cc(-c2cccc(F)c2)nc2c(C(=O)N[C@H](C)C3CC3)ncn12 [III-94] | – | – | – | 10 to 20% | > 60% | 8.4 µg/mL (≈ 24.8 µM) |
| COc1cccc(-c2cc(C)n3cnc(C(=O)NC(C4CC4)C4CC4)c3n2)c1 [III-172] | – | – | – | > 20% | > 60% | 4.2 µg/mL (≈ 11.2 µM) |
| Cc1cc(-c2ccns2)nc2c(C(=O)NC(C3CC3)C(F)(F)F)ncn12 (centres unmarked) [III-141] | – | – | – | > 20% | > 60% | 18 µg/mL (≈ 47.2 µM) |
| COCc1cc(-c2ccc(F)cc2)n2cnc(C(=O)N[C@@H](C)C3CC3)c2n1 [III-35] | – | – | – | < 10% | < 30% | 43.5 µg/mL (≈ 118 µM) |
| Cc1cc(-c2cccc3ncsc23)nc2c(C(=O)NC(C3CC3)C(F)(F)F)ncn12 (centres unmarked) [IV-48] | 10 to 20% | > 60% | 0.4 µg/mL (≈ 0.927 µM) | – | – | – |
| COc1ccc(F)c(-c2cc(C)n3cnc(C(=O)NC(C)(C)C)c3n2)c1 [IV-103] | 10 to 20% | > 60% | 0.7 µg/mL (≈ 1.96 µM) | – | – | – |
| Cc1cc(-c2cnsc2)nc2c(C(=O)N[C@@H](C3CC3)C(F)(F)F)ncn12 [IV-53] | 10 to 20% | > 60% | 13.2 µg/mL (≈ 34.6 µM) | – | – | – |
| CCOc1cccc(-c2cc(C)n3cnc(C(=O)N[C@@H](C)C4CC4)c3n2)n1 [III-155] | – | – | – | < 10% | 30 to 60% | 1.7 µg/mL (≈ 4.65 µM) |
| CCc1cc(-c2ccns2)nc2c(C(=O)NC(C)(C)C)ncn12 [IV-105] | 10 to 20% | > 60% | 15.9 µg/mL (≈ 48.3 µM) | – | – | – |
| Cc1cc(Oc2ccncc2)nc2c(C(=O)N[C@@H](C)C3CC3)ncn12 [IV-115] | < 10% | < 30% | 29.6 µg/mL (≈ 87.7 µM) | – | – | – |
| Cc1cc(-c2ccc(C#N)o2)nc2c(C(=O)N[C@@H](C3CC3)C(F)(F)F)ncn12 [IV-35] | > 20% | > 60% | – | – | – | – |

| Structure (SMILES) | activation at 0.1 µM [1, 3] | activation at 1 µM [1, 4] | solubility ([2]; in water) | activation at 0.1 µM [1, 5] | activation at 1 µM [1, 6] | solubility [2] |
| --- | --- | --- | --- | --- | --- | --- |
| Cc1cc(Oc2ccccn2)nc2c(C(=O)N[C@@H](C)C3CC3)ncn12 [III-121] | – | – | – | < 10% | < 30% | 34.9 µg/mL (≈ 103 µM) |
| Cc1cc(-c2ccc(F)cc2)nc2c(C(=O)N[C@@H](C)C3CC3)ncn12 [III-12] | – | – | – | 10 to 20% | > 60% | 9.3 µg/mL (≈ 27.5 µM) |
| Cc1cc(Oc2cccnc2)nc2c(C(=O)N[C@@H](C)C3CC3)ncn12 [IV-114] | < 10% | < 30% | 32.8 µg/mL (≈ 97.2 µM) | – | – | – |
| CCCCO[C@H]1C[C@H]2CC[C@@H](C1)[C@H]2NC(=O)c1ncn2c(COC)cc(C)nc12 [IV-2] | > 20% | > 60% | 27.5 µg/mL (≈ 68.7 µM) | – | – | – |
| COc1cc(F)cc(-c2cc(C)n3cnc(C(=O)N[C@@H](C)C4CC4)c3n2)c1 [IV-56] | > 20% | > 60% | 3.7 µg/mL (≈ 10 µM) | – | – | – |
| Cc1sc(C#N)cc1-c1cc(C)n2cnc(C(=O)NC(C3CC3)C(F)(F)F)c2n1 (centres unmarked) [IV-95] | > 20% | > 60% | 2.5 µg/mL (≈ 5.96 µM) | – | – | – |
| Cc1cc(-c2cccc3scnc23)nc2c(C(=O)NC(C3CC3)C(F)(F)F)ncn12 (centres unmarked) [IV-47] | < 10% | 30 to 60% | 3.8 µg/mL (≈ 8.81 µM) | – | – | – |
| Cc1cc(N2CCC(F)(F)CC2)nc2c(C(=O)N[C@@H](C)C3CC3)ncn12 [III-115] | – | – | – | < 10% | < 30% | 20.5 µg/mL (≈ 56.4 µM) |
| Cc1cc(-c2nccs2)nc2c(C(=O)NC(C)(C)C)ncn12 [IV-54] | < 10% | < 30% | – | – | – | – |
| Cc1cc(Oc2ccc(F)cc2)nc2c(C(=O)NC(C)(C)C3CC3)ncn12 [III-77] | – | – | – | < 10% | 30 to 60% | – |
| Cc1cc(-c2ccc(C#N)c(O)c2)nc2c(C(=O)NC(C3CC3)C(F)(F)F)ncn12 (centres unmarked) [III-159] | – | – | – | < 10% | < 30% | – |
| Cc1sncc1-c1cc(C)n2cnc(C(=O)N[C@H](C3CC3)C(F)(F)F)c2n1 [IV-98] | > 20% | > 60% | – | – | – | – |
| Cc1nc2c(C(=O)N[C@@H](C)C3CC3)ncn2cc1-c1ccc(F)cc1 [III-39] | – | – | – | < 10% | < 30% | – |
| Cc1nc2c(C(=O)N[C@@H](C)C3CC3)ncn2c(C)c1-c1ccc(F)cc1 [III-40] | – | – | – | < 10% | < 30% | – |
| Cc1cc(-c2cccnc2)nc2c(C(=O)NC(C)C(C)C3CC3)ncn12 (centres unmarked) [III-189] | – | – | – | < 10% | 30 to 60% | – |
| COc1cccc(-c2cc(C)n3cnc(C(=O)NC(C4CC4)C(F)(F)F)c3n2)n1 (centres unmarked) [IV-91] | – | – | 1.4 µg/mL (≈ 3.45 µM) | – | – | – |
| Cc1nscc1-c1cc(C)n2cnc(C(=O)N[C@H](C3CC3)C(F)(F)F)c2n1 [IV-96] | 10 to 20% | > 60% | – | – | – | – |
| Cc1cc(C#N)c(-c2cc(C)n3cnc(C(=O)N[C@@H](C4CC4)C(F)(F)F)c3n2)o1 [IV-94] | > 20% | > 60% | – | – | – | – |
| Cc1nscc1-c1cc(C)n2cnc(C(=O)N[C@@H](C3CC3)C(F)(F)F)c2n1 [IV-97] | 10 to 20% | > 60% | – | – | – | – |
| Cc1cc(-c2cccc(OC(F)(F)F)n2)nc2c(C(=O)N[C@H](C)C3CC3)ncn12 [IV-12] | < 10% | 30 to 60% | – | – | – | – |
| Cc1sncc1-c1cc(C)n2cnc(C(=O)N[C@@H](C3CC3)C(F)(F)F)c2n1 [IV-99] | > 20% | > 60% | – | – | – | – |
| Cc1cc(-c2ccc(C#N)o2)nc2c(C(=O)N[C@H](C3CC3)C(F)(F)F)ncn12 [IV-34] | > 20% | > 60% | – | – | – | – |
| Cc1cc(C#N)c(-c2cc(C)n3cnc(C(=O)N[C@H](C4CC4)C(F)(F)F)c3n2)o1 [IV-93] | > 20% | > 60% | – | – | – | – |
| Cc1cn2cnc(C(=O)N[C@@H](C)C3CC3)c2nc1-c1ccc(F)cc1 [III-32] | – | – | – | < 10% | < 30% | – |

Reference: US9920061B2, “Imidazo[1,5-A]pyrimidinyl carboxamide compounds and their use in the treatment of medical disorders” (Lysosomal Therapeutics Inc., priority 2016, dated 2018)
